The record followed here is the METLIN SMRT retention time set (Domingo-Almenara et al. 2019).

The nature of the data set: gradient 5% acetonitrile 3 min, to 50% in 2 min, to 85% in 15 min, held 3 min, 100 µL/min. Conditions: column: Zorbax Extend-C18 2.1 x 50 mm; eluents: water / acetonitrile, 0.1% formic acid. In short, it runs like this:
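Using water and acetonitrile that each contained 0.1% formic acid, mixtures of ~100 pure standards were separated at 100 μL/min on a Zorbax Extend-C18 column (2.1 × 50 mm, 1.8 μm). The HPLC fed a quadrupole time-of-flight mass spectrometer working in positive and negative ionization mode, with dead and dwell volumes of 40 μL and 900 μL. Data were acquired over 3 months. Retention time was read from computationally picked adduct peaks after manual inspection of each.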
`CN(c1ccccc1)c1nc(=O)n(CC(=O)Nc2ccc3c(c2)OCCO3)c2ccccc12` came in with an RP-LC retention time of 785 s. The result for `Cc1ccc(NS(=O)(=O)c2cc(-c3[nH]ncc3C(=O)N3CCCCC3)oc2C)cc1` reads 773 s; that for `CCc1nc(-c2ccc3c(c2)CCN3C(=O)c2ccco2)no1`, 914 s; that for `O=C(NCc1csc(-c2ccccc2)n1)C1CCN(S(=O)(=O)c2cccc3nsnc23)CC1`, 886 s. Under `Cc1cc(C)n(Cc2c(C(=O)NCC34CCC=C3N(C)C(=O)CC4)noc2C)n1` (stereo not given) stands 749 s. For the compound `CCOCCCNC(=O)C1CCCN(S(=O)(=O)c2ccc3c(ccn3CC)c2)C1` (stereo not given), the RP-LC retention time turned out to be 842 s. Under `COc1ccc(N2C(=O)CN(Cc3ccccc3C)[C@H]3CS(=O)(=O)C[C@H]32)cc1Cl` stands 879 s. The result for `O=C(NC1CC1)c1cc(-c2ccccc2)ns1` reads 836 s; that for `O=C(Cn1nnc2ccccc2c1=O)N1CCN(c2ncccn2)CC1`, 629 s. Compound `CCn1cc(-c2ccc(F)cc2)cc1C(=O)N1CCOCC1` displayed an RP-LC retention time of 869 s.

In the case of `Cc1cc(NC(=O)CN2C(=O)CCc3cc(Br)ccc32)c2ccccc2n1`, the RP-LC retention time was 684 s.

`O=C(NCc1ccccc1)C1CCN(c2ccc(SCc3ccccc3)nn2)CC1` came in with an RP-LC retention time of 761 s. Regarding `O=C(CCSc1ccccc1)NCC(c1ccco1)N1CCOCC1` (stereo not given), the RP-LC retention time worked out at 574 s.

In the case of `O=C(NC1CCc2ccccc21)C1CCN(Cc2noc(-c3ccc(F)cc3)n2)CC1` (stereo not given), the RP-LC retention time turned out to be 683 s. Regarding `CCn1cc(-c2nc(C)c(C(=O)NC3CCCCC3)s2)c2cccnc21`, the RP-LC retention time turned out to be 988 s. As for `COCC(=O)N1CCCN(C2=NS(=O)(=O)C(c3ccccc3)=C2C)CC1`, the RP-LC retention time is 662 s. The result for `CCn1c(C2CCN(C(=O)c3ccc(C(F)(F)F)s3)C2)nc2cccnc21` (stereo not given) reads 782 s. `CO[C@@H](Cc1ccc(OCCc2nc(-c3ccccc3)oc2C)c2ccsc12)C(=O)O` gave an RP-LC retention time of 1160 s. Under `c1ccc(-c2nc3cnc(N4CCN(c5ccccc5)CC4)nc3o2)cc1` stands 1340 s.

In the case of `COc1ccc(S(=O)(=O)Nc2cc(C)ccn2)cc1`, the RP-LC retention time came to 616 s. With `Cc1ccc(-c2noc(CN3N=NC4C(=O)N(c5ccc(C)c(C)c5)C(=O)C43)n2)cc1C` (stereo not given), the RP-LC retention time worked out at 1140 s.

In turn, `CC(C)(C)NC(=O)N1CCC(c2nc(CCNC(=O)C3CC3)cs2)CC1` showed an RP-LC retention time of 675 s.

The compound `CN1CCCc2cc(C(=O)NC3CCCCC3)sc21` yielded an RP-LC retention time of 934 s. The result for `CCOC(=O)C1=C(CN2CCN(c3ccccc3F)CC2)NC(=O)NC1c1cccc(OC)c1OC` (stereo not given) reads 730 s; that for `O=C(Cc1ccccc1Cl)N1CCN(Cc2noc3ccccc23)CC1`, 739 s. For the compound `CCN(CC)C(=O)[C@]1(c2ccccc2)C[C@@H]1CN`, the RP-LC retention time was found to be 655 s. In turn, `CCC(C)NC(=O)c1ccc2c(c1)Sc1ncccc1C(=O)N2C(C)C` (stereo not given) returned an RP-LC retention time of 784 s. The result for `Cc1nc(-c2cc(S(=O)(=O)NCc3ccc(F)c(Cl)c3)c(C)s2)cs1` reads 1010 s.

For `O=C(NCc1ccccc1F)c1cc2n(n1)CCCC2`, the RP-LC retention time is 794 s. Under `COc1ccc(CCNS(=O)(=O)c2cccc(-c3nc(-c4ccccc4)no3)c2)cc1OC` stands 1070 s.

`Brc1cccc(-c2nc3ncccn3c2NCc2ccccc2)c1` had an RP-LC retention time of 860 s. Under `O=C(Cn1cnc2nc(N3CCCC(C(=O)NC4CC4)C3)sc2c1=O)Nc1ccccc1` (stereo not given) stands 663 s. In turn, `CCn1c(=O)c(N2CCCC(C(=O)N3CCN(c4cc(Cl)ccc4C)CC3)C2)nc2ccccc21` (stereo not given) yielded an RP-LC retention time of 1420 s. As for `COC(=O)c1ncn2c1C(=O)N(Cc1cccc(F)c1)C(C)(C(=O)NCc1ccccc1)C2` (stereo not given), the RP-LC retention time was determined as 729 s. The result for `CCOc1ccccc1NC(=O)N1CCCC1c1cc(CC)no1` (stereo not given) reads 833 s. Under `COc1cccc(-c2noc(C3CCCN3C(=O)Nc3ccc(OC)c(Cl)c3)n2)c1` (stereo not given) stands 974 s; under `CCCS(=O)(=O)Nc1cccc(-c2cn3cccc(C)c3n2)c1`, 624 s; under `Cc1ccccc1-c1noc(C2CCCN2C(=O)CNS(=O)(=O)c2ccc(Cl)cc2)n1` (stereo not given), 1020 s. The result for `O=C(c1cn2cc(Cl)ccc2n1)N1CCCCCC1` reads 718 s; that for `Cc1cccc(NC(=O)C2CCCN2S(=O)(=O)c2cc3c(cc2Cl)NC(=O)CO3)c1` (stereo not given), 822 s. In turn, `O=C(Cn1ccn2nc(-c3ccccc3)c(CO)c2c1=O)Nc1cc(Cl)cc(Cl)c1` had an RP-LC retention time of 867 s. The result for `O=C(c1ccc(OCC2CCCN2C(=O)C2CCC2)cc1)N1CCCC1` (stereo not given) reads 783 s. Regarding `COc1ccccc1CNC(=O)C1CCCN(c2cnc3nccnc3c2)C1` (stereo not given), the RP-LC retention time is 689 s.

`COc1cc(NC(=O)CN2CCc3[nH]c4c(C)ccc(F)c4c(=O)c3C2)cc(OC)c1` came in with an RP-LC retention time of 604 s. The result for `O=c1c2c(CO)c(-c3ccccc3)nn2ccn1Cc1cccc(C(F)(F)F)c1` reads 996 s; that for `CCOC(=O)C1CCN(S(=O)(=O)c2cccc(-c3nnc(-c4ccc(C)cc4)o3)c2)CC1`, 1090 s. Under `Cn1nc2c(c1NC(=O)COc1ccc(Cl)cc1Cl)CCC2` stands 815 s; under `O=C(N1CCc2ccccc2C1)C1(c2ccc(F)cc2)CC1`, 905 s. In turn, `COC(=O)c1ccc(C(=O)Nc2nnc(Cc3ccc(C)cc3)o2)cc1` registered an RP-LC retention time of 768 s. Under `COc1cccc(NC(=O)Nc2cccc(-c3ccc(N4CCOCC4)nn3)c2)c1` stands 672 s; under `CCOc1ccc(-c2noc(CN3N=NC4C(=O)N(c5cccc(SC)c5)C(=O)C43)n2)cc1OC` (stereo not given), 984 s. Regarding `CCOC(=O)c1cc2c([nH]c1=O)CC(c1ccc(C)cc1)CC2=O` (stereo not given), the RP-LC retention time came to 780 s. For `O=C(c1csc(N2CCN(c3cccc(Cl)c3)CC2)n1)N1CCOCC1`, the RP-LC retention time is 970 s.

`Cc1ccc(N2CC(c3noc(-c4nccc5ccccc45)n3)CC2=O)cc1` (stereo not given): the RP-LC retention time worked out at 961 s. Take `CCOc1ccc(C(C)C)cc1S(=O)(=O)Nc1cccnc1`: the RP-LC retention time turned out to be 722 s. `Cc1cccc(NC(=O)C2CCCN2S(=O)(=O)c2cccc3nsnc23)n1` (stereo not given): the RP-LC retention time was determined as 798 s. As to `CCNC(=O)C1CCCN(c2nc3ncn(CC(=O)Nc4ccc(F)cc4)c(=O)c3s2)C1` (stereo not given), the RP-LC retention time is 657 s. In the case of `O=C(Cc1ccccc1Cl)N1CCCN(c2nc3cccnc3o2)CC1`, the RP-LC retention time came out at 716 s.

For the compound `O=C(NCc1ccco1)N1CCc2nn(Cc3ccccc3)c(=O)n2CC1`, the RP-LC retention time stood at 687 s. Under `CCCCN1CCN(S(=O)(=O)c2cc(-c3nnc(C4CC4)o3)co2)CC1` stands 633 s; under `FC(F)(F)Oc1ccccc1CN1CCC[C@H]1c1nc(C2CCOCC2)n[nH]1`, 597 s; under `COc1ccc(Cn2nnc(C(=O)O)c2C)cc1F`, 645 s. `COc1ncc(C(=O)Nc2cccc(F)c2)c(C)n1` had an RP-LC retention time of 757 s. `Cc1ccccc1Nc1c(-c2ccc(N3CCOCC3)cc2)nc2ccc(Cl)cn12` came in with an RP-LC retention time of 805 s. On to `Cc1ccc(-c2noc(Cn3ncn4nc(-c5ccccc5Cl)cc4c3=O)n2)cc1`, for which the RP-LC retention time was 1200 s.

The compound `Cc1cc2c(cc1S(=O)(=O)N1CCCC1C(=O)Nc1ccc3c(c1)OCCO3)OCC(=O)N2` (stereo not given) showed an RP-LC retention time of 700 s.

As for `CC(C)n1nnc2cc(C(=O)N(C)CC(=O)Nc3ccc(F)cc3)ccc21`, the RP-LC retention time was 726 s. The result for `CCC(C)NC(=O)N1CCNC(=O)C1` (stereo not given) reads 557 s; that for `O=C1CC(c2nc(-c3ccccn3)no2)CN1c1ccc2c(c1)OCCO2` (stereo not given), 715 s. The result for `CCc1nc(OCC(=O)NCc2ccc(C)cc2)c2c(C)c(C)oc2n1` reads 999 s; that for `O=C(CCc1csc(NC(=O)c2ccc(F)cc2)n1)Nc1ccc(-n2cnnn2)cc1`, 741 s; that for `COc1ccc(Cl)cc1N1CC(c2nc(-c3cc(OC)c(OC)c(OC)c3)no2)CC1=O` (stereo not given), 905 s. `O=C(Cn1c(-c2cnccn2)nc2ccccc21)N1CCN(C(=O)c2ccco2)CC1`: the RP-LC retention time came out at 615 s.

Take `O=C(NCCN1CCCCC1)C1CN(S(=O)(=O)c2cccnc2)CC12CCCCC2` (stereo not given): the RP-LC retention time amounted to 613 s. In turn, `CCOC(=O)c1cc([N+](=O)[O-])sc1NC(=O)CCCS(=O)(=O)c1ccc(F)cc1` returned an RP-LC retention time of 965 s. In the case of `COc1cc(NS(=O)(=O)c2ccc3c(c2)C(=O)N(C)c2ncccc2O3)cc(OC)c1`, the RP-LC retention time amounted to 868 s. The result for `O=C(Nc1ccccc1)c1cc(C2CC2)on1` reads 912 s; that for `COCC(=O)Nc1cc2c(cc1N(C)C)n(C)c(=O)c(=O)n2C`, 606 s.

Compound `COc1ccc(-n2ccn3cc(-c4ccc(Cl)cc4)nc3c2=O)cc1OC` yielded an RP-LC retention time of 810 s.

In turn, `Cc1ccc(Nc2c(-c3ccc(Cl)cc3)nc3cnccn23)c(C)c1` showed an RP-LC retention time of 1080 s.
